Tested on: hypertensive patients
Assay: Special investigation of combined use of cilnidipine and ARB: degree of the blood pressure controls judged by the doctor (efficacy ratio)
Assay type: in vivo, human
Set-up: concentration or dose not given beside the values
Method: A special investigation was conducted in various medical centers, compiled, and analyzed to evaluate the safety and availability of the combined use of cilnidipine and at least one angiotensin II receptor blocker.
The subjects of the investigation were hypertensive patients which were adapted to cilnidipine. Combined administration of cilnidipine and ARB was started for the treatment of hypertension in these patients.
A prospective continuous investigation method was conducted. Such a method is continuously conducted with the registered cases with the combined administration of cilnidipine (Atelec®) and ARB, until the number of cases reaches the contracted cases for each center.
Regarding the administration method of cilnidipine, 5 to 10 mg of cilnidipine was orally administered after breakfast once a day. Meanwhile, the amount may increase or decrease depending on patient's age, symptoms, or the like. When the effect is insufficient, the amount can be increased to 20 mg once a day. The dosing period of cilnidipine was set to 12 weeks in principle.
The following items were tracked during the investigation: patient's background (sex), existence or nonexistence of previous therapeutic agents and the content thereof, targeted blood pressure (systolic BP/diastolic BP), the conditions of administration of cilnidipine and ARB, antihypertensives used in combination (those other than cilnidipine or ARB), clinical course (systolic BP/diastolic BP/heart rate), and occurrence of side-effects. As for the availability of the combined administration, in the 12th week after starting the combined administration, the doctor in attendance judged the degree of the blood pressure controls on a three-point scale of “well-controlled”, “nearly well-controlled” and “poorly-controlled”, referring to the changes in the systolic and diastolic BP. As for the safety and availability analysis for each patient background, Fisher's exact probability test or the X^2 test was used. As for the blood pressure and heart rate, the average value and the standard deviation were calculated for the subjects before the combined administration (within 4 weeks before starting the combined administration), and data after starting the combined administration were determined on each observation day, and analysis was conducted by using a paired t-test. The test was conducted as the two-sided test and less than 5% of the risk rate was regarded as significant. Furthermore, side-effects were compiled based on the naming of preferred terms (PT) of MedDRA/J ver 8.0.
As the index of availability, in the 12th week after starting the combined administration, the doctor in attendance judged the degree of the blood pressure controls on a three-point scale of “well-controlled”, “nearly well-controlled” and “poorly-controlled”.
(1) Among the 2919 cases in the availability analysis, 42 cases in which the degree of the blood pressure controls was not described, and 168 cases which could not be judged, were excluded. In the other 2709 cases, the ratio of number of cases judged as “nearly well-controlled” or higher was calculated as the efficacy ratio. Accordingly, the efficacy ratio of the subject cases in the availability analysis was 84.8% (2298 cases/2709 cases).

COCCOC(=O)C1=C(C)NC(C)=C(C(=O)OC/C=C/c2ccccc2)C1c1cccc([N+](=O)[O-])c1 (racemic) [cilnidipine, 2-methoxyethyl-3-phenyl-2(E)-propenyl(±)-1,4-dihydro-2,6-dimethyl-4-(3-nitrophenyl)-3,5-pyridinedicarboxylate]
efficacy ratio (cases judged nearly well-controlled or higher) (all subject cases in the availability analysis, 12th week after starting cilnidipine + ARB, 2298 cases/2709 cases): 84.8%
efficacy ratio (cases judged nearly well-controlled or higher) (cases on ARB alone, cilnidipine additionally administered (antihypertensives ARB and cilnidipine only)): 86.4%

— patent publication US20080051438A1, “Preventive/Therapeutic Compositions Useful for Treating Cardiovascular Diseases” (priority 2006, published 2008)
